{"source": "patent US9421194B2", "about": "“Lung targeting dual drug delivery system” (priority 2010, dated 2016)", "key": {"[1]": {"assay": "Systemic (plasma) concentration of CPT after single bolus IV injection", "type": "in vivo, rats", "conditions": "free CPT IV, 2 mg/kg", "experimental": "FIG. 9 illustrates systemic (plasma) concentration of camptothecin (CPT) as a function of time after a single bolus IV injection of CPT-Nva-MPs (CPT dose=0.2 mg/kg) (squares) and free CPT (2 mg/kg) (triangles). Values are reported as mean±SD. The lower limit of quantitation was 0.1 ng/mL.\nPEGylated 6 μm polystyrene MPs with three copies of the norvaline (Nva) α-amino acid prodrug of CPT were prepared. […] Referring to FIG. 10, anti-cancer efficacy was evaluated in an orthotopic rat lung cancer model and compared to a bolus injection of CPT. One week after A549 cell inoculation, nude rats were injected IV with CPT-Nva-MPs (50 and 100 mg/kg equivalent to CPT at 0.11 mg/kg and 0.22 mg/kg), free CPT (2 mg/kg) or vehicle control (saline containing 0.1% Tween 80). The treatment was conducted every 3 days for 27 days. The day after the last treatment, all animals were euthanized, and organs (lung, heart, […], spleen and […]) were dissected and weighed. The organs were fixed in 10% neutral buffered formalin for H&E staining. […] In addition, 40% of the animals receiving CPT-Nva-MPs (0.22 mg/kg) were free of cancer. […] See references 74 and 86, which are incorporated herein by reference as if fully set forth."}, "[2]": {"system": "A549 cell orthotopic lung cancer", "assay": "Anti-cancer efficacy in orthotopic rat lung cancer model", "type": "in vivo, nude rats", "conditions": "2 mg/kg IV every 3 days for 27 days; p<0.05", "experimental": "PEGylated 6 μm polystyrene MPs with three copies of the norvaline (Nva) α-amino acid prodrug of CPT were prepared. […] The treatment was conducted every 3 days for 27 days. The day after the last treatment, all animals were euthanized, and organs (lung, heart, […], spleen and […]) were dissected and weighed. The organs were fixed in 10% neutral buffered formalin for H&E staining. […] See references 74 and 86, which are incorporated herein by reference as if fully set forth."}}}
{"smiles": "CC[C@@]1(O)C(=O)OCc2c1cc1n(c2=O)Cc2cc3ccccc3nc2-1", "note": "[free CPT, camptothecin]", "values": [{"measurement": "systemic CPT exposure (in words)", "setting": "[1]", "value": "high but short-lived systemic exposures"}, {"measurement": "area of lung cancer versus untreated animals", "setting": "[2]", "value": "smaller areas of lung cancer"}]}
